IC50 and viability, T/C data for four molecules are collected here from PubChem BioAssay AID2060508 (Molecular Pharmacology Branch, DTP, NCI, 2025).
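Also: spheroids exposed to compounds for seven days.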
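For viability, T/C in this document: 100% = DMSO vehicle control viability.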

The test system of one assay is 454973-116-R2-J3-PDC spheroids, viability, % test/control. The assay can be described thus: Anticancer human tumor 454973-116-R2-J3-PDC patient-derived pancreatic carcinoma cell line growth inhibition [GQUAD]. The settings on record: curve of first compound; second compound 0.0316 µM; spheroids with HUVEC and MSC. Summed up:
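Tumor cells were grown as complex spheroids with HUVEC endothelial cells and mesenchymal stem cells as stroma. G-quadruplex stabilizers were combined with targeted agents over half-log dilutions from near the clinical Cmax, or from 10 microM.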
By IC50 is commonly meant the concentration that inhibits the measured activity by half. Regarding `C=CCn1c(=O)c2cnc(Nc3ccc(N4CCN(C)CC4)cc3)nc2n1-c1cccc(C(C)(C)O)n1` + CN(C)c1ccc(Nc2c3ccc(NC(=O)CCN4CCCC4)cc3nc3cc(NC(=O)CCN4CCCC4)ccc23)cc1, the IC50 was 433 nM.

Consider `CC(C)(O)C1CCC(Nc2ccc3ncc(-c4cccc(C(F)(F)F)c4)n3n2)CC1` (configuration not stated) + CN(C)c1ccc(Nc2c3ccc(NC(=O)CCN4CCCC4)cc3nc3cc(NC(=O)CCN4CCCC4)ccc23)cc1, for which the IC50 came out at 1780 nM.

Consider `COc1ncnc(C2CC2)c1-c1ncc2cnn(Cc3ccc(-c4nc(C(F)(F)F)cn4C(C)C)cc3)c2n1` + CN(C)c1ccc(Nc2c3ccc(NC(=O)CCN4CCCC4)cc3nc3cc(NC(=O)CCN4CCCC4)ccc23)cc1, for which the IC50 was more than 10000 nM.

As to `O=C(NO)c1cnc(N2CCN(S(=O)(=O)c3ccc4ccccc4c3)CC2)nc1` + CN(C)c1ccc(Nc2c3ccc(NC(=O)CCN4CCCC4)cc3nc3cc(NC(=O)CCN4CCCC4)ccc23)cc1, the IC50 came to 212 nM.

The assay is the same for the next values; noted with them: curve of first compound; second compound 0.1 µM; spheroids with HUVEC and MSC.
`C=CCn1c(=O)c2cnc(Nc3ccc(N4CCN(C)CC4)cc3)nc2n1-c1cccc(C(C)(C)O)n1` + CN(C)c1ccc(Nc2c3ccc(NC(=O)CCN4CCCC4)cc3nc3cc(NC(=O)CCN4CCCC4)ccc23)cc1: the IC50 turned out to be 350 nM.

`CC(C)(O)C1CCC(Nc2ccc3ncc(-c4cccc(C(F)(F)F)c4)n3n2)CC1` (configuration not stated) + CN(C)c1ccc(Nc2c3ccc(NC(=O)CCN4CCCC4)cc3nc3cc(NC(=O)CCN4CCCC4)ccc23)cc1: the IC50 is 1730 nM.

For `COc1ncnc(C2CC2)c1-c1ncc2cnn(Cc3ccc(-c4nc(C(F)(F)F)cn4C(C)C)cc3)c2n1` + CN(C)c1ccc(Nc2c3ccc(NC(=O)CCN4CCCC4)cc3nc3cc(NC(=O)CCN4CCCC4)ccc23)cc1, the IC50 was more than 10000 nM.

In the case of `O=C(NO)c1cnc(N2CCN(S(=O)(=O)c3ccc4ccccc4c3)CC2)nc1` + CN(C)c1ccc(Nc2c3ccc(NC(=O)CCN4CCCC4)cc3nc3cc(NC(=O)CCN4CCCC4)ccc23)cc1, the IC50 was 202 nM.

Staying with this assay, now noted: curve of first compound; second compound 0.316 µM; spheroids with HUVEC and MSC.
For `C=CCn1c(=O)c2cnc(Nc3ccc(N4CCN(C)CC4)cc3)nc2n1-c1cccc(C(C)(C)O)n1` + CN(C)c1ccc(Nc2c3ccc(NC(=O)CCN4CCCC4)cc3nc3cc(NC(=O)CCN4CCCC4)ccc23)cc1, the 50% inhibitory concentration (IC50) turned out to be 399 nM.

As for `CC(C)(O)C1CCC(Nc2ccc3ncc(-c4cccc(C(F)(F)F)c4)n3n2)CC1` (configuration not stated) + CN(C)c1ccc(Nc2c3ccc(NC(=O)CCN4CCCC4)cc3nc3cc(NC(=O)CCN4CCCC4)ccc23)cc1, the half-inhibitory concentration (IC50) is 1540 nM.

Take `COc1ncnc(C2CC2)c1-c1ncc2cnn(Cc3ccc(-c4nc(C(F)(F)F)cn4C(C)C)cc3)c2n1` + CN(C)c1ccc(Nc2c3ccc(NC(=O)CCN4CCCC4)cc3nc3cc(NC(=O)CCN4CCCC4)ccc23)cc1: the IC50 was more than 10000 nM.

Regarding `O=C(NO)c1cnc(N2CCN(S(=O)(=O)c3ccc4ccccc4c3)CC2)nc1` + CN(C)c1ccc(Nc2c3ccc(NC(=O)CCN4CCCC4)cc3nc3cc(NC(=O)CCN4CCCC4)ccc23)cc1, the IC50 amounted to 197 nM.

The assay is the same for the next values; noted with them: curve of first compound; second compound 1 µM; spheroids with HUVEC and MSC.
With `C=CCn1c(=O)c2cnc(Nc3ccc(N4CCN(C)CC4)cc3)nc2n1-c1cccc(C(C)(C)O)n1` + CN(C)c1ccc(Nc2c3ccc(NC(=O)CCN4CCCC4)cc3nc3cc(NC(=O)CCN4CCCC4)ccc23)cc1, the IC50 was 365 nM.

Turning to `CC(C)(O)C1CCC(Nc2ccc3ncc(-c4cccc(C(F)(F)F)c4)n3n2)CC1` (configuration not stated) + CN(C)c1ccc(Nc2c3ccc(NC(=O)CCN4CCCC4)cc3nc3cc(NC(=O)CCN4CCCC4)ccc23)cc1, the IC50 amounted to 1250 nM.

Consider `COc1ncnc(C2CC2)c1-c1ncc2cnn(Cc3ccc(-c4nc(C(F)(F)F)cn4C(C)C)cc3)c2n1` + CN(C)c1ccc(Nc2c3ccc(NC(=O)CCN4CCCC4)cc3nc3cc(NC(=O)CCN4CCCC4)ccc23)cc1, for which the concentration for half-maximal inhibition (IC50) is more than 10000 nM.

In the case of `O=C(NO)c1cnc(N2CCN(S(=O)(=O)c3ccc4ccccc4c3)CC2)nc1` + CN(C)c1ccc(Nc2c3ccc(NC(=O)CCN4CCCC4)cc3nc3cc(NC(=O)CCN4CCCC4)ccc23)cc1, the IC50 stood at 195 nM.

Staying with this assay, now noted: curve of first compound; second compound 3.16 µM; spheroids with HUVEC and MSC.
`C=CCn1c(=O)c2cnc(Nc3ccc(N4CCN(C)CC4)cc3)nc2n1-c1cccc(C(C)(C)O)n1` + CN(C)c1ccc(Nc2c3ccc(NC(=O)CCN4CCCC4)cc3nc3cc(NC(=O)CCN4CCCC4)ccc23)cc1: the IC50 is 423 nM.

In the case of `CC(C)(O)C1CCC(Nc2ccc3ncc(-c4cccc(C(F)(F)F)c4)n3n2)CC1` (configuration not stated) + CN(C)c1ccc(Nc2c3ccc(NC(=O)CCN4CCCC4)cc3nc3cc(NC(=O)CCN4CCCC4)ccc23)cc1, the IC50 turned out to be 739 nM.

For the molecule `COc1ncnc(C2CC2)c1-c1ncc2cnn(Cc3ccc(-c4nc(C(F)(F)F)cn4C(C)C)cc3)c2n1` + CN(C)c1ccc(Nc2c3ccc(NC(=O)CCN4CCCC4)cc3nc3cc(NC(=O)CCN4CCCC4)ccc23)cc1, the IC50 is more than 10000 nM.

Take `O=C(NO)c1cnc(N2CCN(S(=O)(=O)c3ccc4ccccc4c3)CC2)nc1` + CN(C)c1ccc(Nc2c3ccc(NC(=O)CCN4CCCC4)cc3nc3cc(NC(=O)CCN4CCCC4)ccc23)cc1: the 50% inhibitory concentration (IC50) is 178 nM.

Still in this assay, the particulars now being: curve of first compound; second compound 10 µM; spheroids with HUVEC and MSC.
For the molecule `C=CCn1c(=O)c2cnc(Nc3ccc(N4CCN(C)CC4)cc3)nc2n1-c1cccc(C(C)(C)O)n1` + CN(C)c1ccc(Nc2c3ccc(NC(=O)CCN4CCCC4)cc3nc3cc(NC(=O)CCN4CCCC4)ccc23)cc1, the IC50 is 431 nM.

For the molecule `CC(C)(O)C1CCC(Nc2ccc3ncc(-c4cccc(C(F)(F)F)c4)n3n2)CC1` (configuration not stated) + CN(C)c1ccc(Nc2c3ccc(NC(=O)CCN4CCCC4)cc3nc3cc(NC(=O)CCN4CCCC4)ccc23)cc1, the IC50 is 808 nM.

Take `COc1ncnc(C2CC2)c1-c1ncc2cnn(Cc3ccc(-c4nc(C(F)(F)F)cn4C(C)C)cc3)c2n1` + CN(C)c1ccc(Nc2c3ccc(NC(=O)CCN4CCCC4)cc3nc3cc(NC(=O)CCN4CCCC4)ccc23)cc1: the half-maximal inhibitory concentration (IC50) was more than 10000 nM.

Consider `O=C(NO)c1cnc(N2CCN(S(=O)(=O)c3ccc4ccccc4c3)CC2)nc1` + CN(C)c1ccc(Nc2c3ccc(NC(=O)CCN4CCCC4)cc3nc3cc(NC(=O)CCN4CCCC4)ccc23)cc1, for which the half-maximal inhibitory concentration (IC50) was found to be 141 nM.

The same assay, now with this note: second compound 0.0316 µM; first compound 0.0316 µM; stronger effect = lower value; spheroids with HUVEC and MSC.
As usually defined, the viability, T/C is the result in the treated group divided by that in the control group, in per cent. For `C=CCn1c(=O)c2cnc(Nc3ccc(N4CCN(C)CC4)cc3)nc2n1-c1cccc(C(C)(C)O)n1` + CN(C)c1ccc(Nc2c3ccc(NC(=O)CCN4CCCC4)cc3nc3cc(NC(=O)CCN4CCCC4)ccc23)cc1, the viability, T/C is 109%.

`CC(C)(O)C1CCC(Nc2ccc3ncc(-c4cccc(C(F)(F)F)c4)n3n2)CC1` (configuration not stated) + CN(C)c1ccc(Nc2c3ccc(NC(=O)CCN4CCCC4)cc3nc3cc(NC(=O)CCN4CCCC4)ccc23)cc1: the viability, T/C is 108%.

As to `COc1ncnc(C2CC2)c1-c1ncc2cnn(Cc3ccc(-c4nc(C(F)(F)F)cn4C(C)C)cc3)c2n1` + CN(C)c1ccc(Nc2c3ccc(NC(=O)CCN4CCCC4)cc3nc3cc(NC(=O)CCN4CCCC4)ccc23)cc1, the viability, T/C was 104%.

As for `O=C(NO)c1cnc(N2CCN(S(=O)(=O)c3ccc4ccccc4c3)CC2)nc1` + CN(C)c1ccc(Nc2c3ccc(NC(=O)CCN4CCCC4)cc3nc3cc(NC(=O)CCN4CCCC4)ccc23)cc1, the viability, T/C is 107%.

Still in this assay, the particulars now being: second compound 0.0316 µM; first compound 0.1 µM; stronger effect = lower value; spheroids with HUVEC and MSC.
Take `C=CCn1c(=O)c2cnc(Nc3ccc(N4CCN(C)CC4)cc3)nc2n1-c1cccc(C(C)(C)O)n1` + CN(C)c1ccc(Nc2c3ccc(NC(=O)CCN4CCCC4)cc3nc3cc(NC(=O)CCN4CCCC4)ccc23)cc1: the viability, T/C is 89.4%.

Turning to `CC(C)(O)C1CCC(Nc2ccc3ncc(-c4cccc(C(F)(F)F)c4)n3n2)CC1` (configuration not stated) + CN(C)c1ccc(Nc2c3ccc(NC(=O)CCN4CCCC4)cc3nc3cc(NC(=O)CCN4CCCC4)ccc23)cc1, the viability, T/C is 101%.

Consider `COc1ncnc(C2CC2)c1-c1ncc2cnn(Cc3ccc(-c4nc(C(F)(F)F)cn4C(C)C)cc3)c2n1` + CN(C)c1ccc(Nc2c3ccc(NC(=O)CCN4CCCC4)cc3nc3cc(NC(=O)CCN4CCCC4)ccc23)cc1, for which the viability, T/C is 113%.

With `O=C(NO)c1cnc(N2CCN(S(=O)(=O)c3ccc4ccccc4c3)CC2)nc1` + CN(C)c1ccc(Nc2c3ccc(NC(=O)CCN4CCCC4)cc3nc3cc(NC(=O)CCN4CCCC4)ccc23)cc1, the viability, T/C was 89.7%.

Staying with this assay, now noted: second compound 0.0316 µM; first compound 0.316 µM; stronger effect = lower value; spheroids with HUVEC and MSC.
As to `C=CCn1c(=O)c2cnc(Nc3ccc(N4CCN(C)CC4)cc3)nc2n1-c1cccc(C(C)(C)O)n1` + CN(C)c1ccc(Nc2c3ccc(NC(=O)CCN4CCCC4)cc3nc3cc(NC(=O)CCN4CCCC4)ccc23)cc1, the viability, T/C was 65.3%.

With `CC(C)(O)C1CCC(Nc2ccc3ncc(-c4cccc(C(F)(F)F)c4)n3n2)CC1` (configuration not stated) + CN(C)c1ccc(Nc2c3ccc(NC(=O)CCN4CCCC4)cc3nc3cc(NC(=O)CCN4CCCC4)ccc23)cc1, the viability, T/C was 94.8%.

Regarding `COc1ncnc(C2CC2)c1-c1ncc2cnn(Cc3ccc(-c4nc(C(F)(F)F)cn4C(C)C)cc3)c2n1` + CN(C)c1ccc(Nc2c3ccc(NC(=O)CCN4CCCC4)cc3nc3cc(NC(=O)CCN4CCCC4)ccc23)cc1, the viability, T/C is 97.6%.

In the case of `O=C(NO)c1cnc(N2CCN(S(=O)(=O)c3ccc4ccccc4c3)CC2)nc1` + CN(C)c1ccc(Nc2c3ccc(NC(=O)CCN4CCCC4)cc3nc3cc(NC(=O)CCN4CCCC4)ccc23)cc1, the viability, T/C is 28.9%.

The assay is the same for the next values; noted with them: second compound 0.0316 µM; first compound 1 µM; stronger effect = lower value; spheroids with HUVEC and MSC.
On to `C=CCn1c(=O)c2cnc(Nc3ccc(N4CCN(C)CC4)cc3)nc2n1-c1cccc(C(C)(C)O)n1` + CN(C)c1ccc(Nc2c3ccc(NC(=O)CCN4CCCC4)cc3nc3cc(NC(=O)CCN4CCCC4)ccc23)cc1, for which the viability, T/C was 16.2%.

As to `CC(C)(O)C1CCC(Nc2ccc3ncc(-c4cccc(C(F)(F)F)c4)n3n2)CC1` (configuration not stated) + CN(C)c1ccc(Nc2c3ccc(NC(=O)CCN4CCCC4)cc3nc3cc(NC(=O)CCN4CCCC4)ccc23)cc1, the viability, T/C is 77%.

As to `COc1ncnc(C2CC2)c1-c1ncc2cnn(Cc3ccc(-c4nc(C(F)(F)F)cn4C(C)C)cc3)c2n1` + CN(C)c1ccc(Nc2c3ccc(NC(=O)CCN4CCCC4)cc3nc3cc(NC(=O)CCN4CCCC4)ccc23)cc1, the viability, T/C is 102%.

For the molecule `O=C(NO)c1cnc(N2CCN(S(=O)(=O)c3ccc4ccccc4c3)CC2)nc1` + CN(C)c1ccc(Nc2c3ccc(NC(=O)CCN4CCCC4)cc3nc3cc(NC(=O)CCN4CCCC4)ccc23)cc1, the viability, T/C was 3.06%.

Still in this assay, the particulars now being: second compound 0.0316 µM; first compound 3.16 µM; stronger effect = lower value; spheroids with HUVEC and MSC.
As to `C=CCn1c(=O)c2cnc(Nc3ccc(N4CCN(C)CC4)cc3)nc2n1-c1cccc(C(C)(C)O)n1` + CN(C)c1ccc(Nc2c3ccc(NC(=O)CCN4CCCC4)cc3nc3cc(NC(=O)CCN4CCCC4)ccc23)cc1, the viability, T/C was 7.05%.

`CC(C)(O)C1CCC(Nc2ccc3ncc(-c4cccc(C(F)(F)F)c4)n3n2)CC1` (configuration not stated) + CN(C)c1ccc(Nc2c3ccc(NC(=O)CCN4CCCC4)cc3nc3cc(NC(=O)CCN4CCCC4)ccc23)cc1: the viability, T/C is 17.3%.
